Data reported in US20100197635A1, “TREATMENT OF TARDIVE DYSKINESIA WITH PYRIDOXAL 5'-PHOSPHATE” (Medicure International Inc., priority 2007, published 2010).
Read-outs that look alike come from different tables or passages of the source.

Experiments:
[1] = tested on: P2 purinoceptors; settings: cited from earlier work
[2] = Phase I single ascending dose study, safety and tolerance of P5P enteric-coated tablet; type: in vivo, healthy subjects
Experimental: (§1) A Phase I, single center, single-dose, open-label, sequential ascending dose study to evaluate the safety and tolerance of pyridoxal-5′-phosphate, in an enteric-coated tablet, following a single dose of 250 mg, 750 mg, 1000 mg, and 4000 mg in healthy subjects under fasting conditions was conducted.
(§2) A total of 32 healthy, adult subjects signed the study-specific Informed Consent Form and were confined in the clinical study unit; of these subjects, 24 (6 subjects in each dose level; 3 males and 3 females) were dosed and were enrolled in the study; all of these enrolled subjects completed the study. Subjects were confined to the SFBC Anapharm Clinical Research Facility from at least 12 hours prior to drug administration until after the 24.0-hour post-dose blood draw.
Subjects enrolled in this study were members of the community at large. […] All participating subjects were judged eligible for the study when assessed against the inclusion and exclusion criteria. […]

[3] = tested on: Tardive Dyskinesia; experiment: Double blind, placebo controlled crossover study of P5P in tardive dyskinesia (Extrapyramidal Symptom Rating Scale); type: in vivo, patients
Experimental: A double blind, placebo controlled crossover study is conducted among patients with TD induced by the use of a neuroleptic medication. Patients are divided into 5 groups: control, Vitamin B6 treatment (400 mg), low dose of P5P (100 mg), medium dose of P5P (250 mg), and high dose of P5P (750 mg). All dosages are administered orally. Treatments are given daily.

[4] = Phase I single ascending dose study, pharmacokinetics of P5P enteric-coated tablet; type: in vivo, healthy subjects; settings: both sexes, human, fasting; for Cmax / Tmax / half-life: plasma, baseline-corrected; for AUC(0-t): baseline-corrected plasma P5P
Experimental: as §1, §2
Subjects were administered a single oral dose of study medication, as a 1×250 mg (Cohort 1), 3×250 mg (Cohort 2; total dose of 750 mg), 4×250 mg (Cohort 3; total dose of 1000 mg), or 16×250 mg (Cohort 4; total dose of 4000 mg) enteric-coated tablets.
After a supervised overnight fast of at least 10 hours, subjects were administered the medication as a single oral dose of 1, 3, 4, or 16 enteric-coated tablets containing 250 mg of P5P (total dose of 250mg, 750 mg, 1000 mg, or 4000 mg), with 300 mL of water. Subjects were dosed as specified in the protocol, and subsequently fasted for at least 4 hours.
The pharmacokinetic parameters to determine bioavailability for this study were: area under the concentration-time curve from time zero to time of last non-zero concentration (AUC0-t), maximum observed concentration (Cmax), time of observed Cmax (Tmax) and elimination half-life (equivalent to t1/2).

[5] = tested on: Tardive Dyskinesia; settings: 100-400 mg vitamin B6 per day, TD induced by schizophrenia medication; cited from earlier work
[6] = unlikely to pose risks of adverse health effects in healthy people; cited from earlier work

For Cc1ncc(COP(=O)(O)O)c(C=O)c1O [P5P, 3-hydroxy-2-methyl-5-[(phosphonooxy)methyl]-4-pyridine-carboxaldehyde], the “ATP induced calcium ion influx into cells” value [1] is given as “inhibits”, the tolerability ([2]; dosages up to 4000 mg) is given as “well tolerated” and the “side effects or evidence of toxicity” value ([2]; single oral doses 250, 750, 1000, 4000 mg) is given as “none of the patients presented any significant side effects or evidence of toxicity”. For the same compound, the “Extrapyramidal Symptom Rating Scale scores, medium or high dose compared to low dose group” value ([3]; P5P 250 mg or 750 mg vs 100 mg, orally daily) was “significantly improved scores”, the “Extrapyramidal Symptom Rating Scale scores, medium dose compared to high dose” value ([3]; P5P 250 mg vs 750 mg, orally daily) was “do not exhibit significantly different scores” and the “scores on the subscales of the Extrapyramidal Symptom Rating Scale (parkinsonism and dyskinetic movement scales)” value ([3]; P5P 100, 250 or 750 mg orally daily, compared to control or vitamin B6 (400 mg) groups) was “improved scores”. For the same compound, the Cmax ([4]; single oral dose 250 mg) was 300 ± 200 ng/mL, the Tmax ([4]; single oral dose 250 mg) was 3.2 ± 1.3 h and the half-life ([4]; single oral dose 250 mg) was 53.8 ± 41.9 h. The Cmax ([4]; single oral dose 750 mg) was 3900 ± 5400 ng/mL, the Tmax ([4]; single oral dose 750 mg) was 2.8 ± 0.9 h and the half-life ([4]; single oral dose 750 mg) was 27.9 ± 19.5 h. For the same compound, the Cmax ([4]; single oral dose 1000 mg) was 1500 ± 2300 ng/mL, the Tmax ([4]; single oral dose 1000 mg) was 2.9 ± 1.4 h and the half-life ([4]; single oral dose 1000 mg) was 36.2 ± 30.6 h. For the same compound, the Cmax ([4]; single oral dose 4000 mg) was 1700 ± 2700 ng/mL, the Tmax ([4]; single oral dose 4000 mg) was 4.7 ± 3.5 h and the half-life ([4]; single oral dose 4000 mg) was 16.5 ± 16.5 h. It also gave an AUC(0-t) ([4]; single oral dose 250 mg) of 2600 ± 1300 ng·h/mL, an AUC(0-t) ([4]; single oral dose 750 mg) of 12800 ± 15400 ng·h/mL and an AUC(0-t) ([4]; single oral dose 1000 mg) of 5900 ± 7700 ng·h/mL. For the same compound, the AUC(0-t) ([4]; single oral dose 4000 mg) was 6900 ± 7400 ng·h/mL.
For Cc1ncc(CO)c(CO)c1O [vitamin B6, pyridoxine], the “scores on the subscales of the Extrapyramidal Symptom Rating Scale (parkinsonism and dyskinetic movement scales)” value [5] is listed as “improved scores” and the “Tolerable Upper Intake Level” value [6] is listed as 100 mg.
